Assay results taken from patent EP3046573B1, “AMYLIN ANALOGUES” (Zealand Pharma A/S, priority 2013, dated 2015).
Where two headings read alike, the source gives them in different places. Numbered stars: 1 amine (or outer) side, 2 acyl side, 3 side chain; on linkers, the order of the positions; unused ones are H or OH. Bridge positions count the residues as written; N and C are the ends. Square brackets hold non-standard residues; d marks the D form. Peptide text beside a SMILES is read from it. * marks the point of attachment. C20 diacid = O=C(O)CCCCCCCCCCCCCCCCCCC(=O)*; γGlu = O=C(O)[C@H](CCC(=O)[*:2])N[*:1]; NMeI = CC[C@H](C)[C@H](NC)C(=O)O; Sar = CNCC(=O)O

Molecular target: T1, human calcitonin receptor (hCTR2) (Homo sapiens, UniProt P30988)
T1 construct: expressed in transfected cells
T1 sequence (P30988 25-474): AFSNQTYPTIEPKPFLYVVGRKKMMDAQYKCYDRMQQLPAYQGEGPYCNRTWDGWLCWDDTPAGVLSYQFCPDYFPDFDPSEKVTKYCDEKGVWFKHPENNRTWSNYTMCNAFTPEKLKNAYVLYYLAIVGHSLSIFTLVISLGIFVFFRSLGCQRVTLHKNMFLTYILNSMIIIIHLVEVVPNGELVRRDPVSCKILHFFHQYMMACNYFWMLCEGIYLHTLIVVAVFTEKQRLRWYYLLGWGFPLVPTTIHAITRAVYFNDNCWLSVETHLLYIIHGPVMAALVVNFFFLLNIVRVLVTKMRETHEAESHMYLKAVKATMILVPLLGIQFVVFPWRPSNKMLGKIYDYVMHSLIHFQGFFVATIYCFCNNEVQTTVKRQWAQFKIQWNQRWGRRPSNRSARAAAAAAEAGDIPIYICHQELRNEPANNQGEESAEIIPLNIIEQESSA
Assay: hCTR2 assay: induction of cAMP (AlphaScreen cAMP Assay kit) in COS7 cells expressing hCTR2
Format: cell-based
Excerpt: The cell line COS7, originating from African Green Monkey kidney fibroblast cells, was used for establishment of the stable cell lines described below. The COS7 cellular background was used due to it being RAMP naive, and as such it provides the best available system for testing of the monomeric hCTR and different heterodimeric amylin receptor subtypes functionally generated by introduction of the individual RAMPs.
A cell line expressing the human calcitonin receptor (hCTR2) was generated in the COS7 cellular background as stable clones. In brief, hCTR2 (GI: 4502547) was amplified by PCR using primers encoding terminal restriction sites for subcloning. The 5'-end primers additionally encoded a near Kozak consensus sequence to ensure efficient translation. The fidelity of the DNA encoding the receptor was confirmed by DNA sequencing. The PCR products encoding the receptor were subcloned into a mammalian expression vector containing a neomycin (G418) resistance marker. The mammalian expression vector encoding the receptor was transfected into COS7 cells by a standard liposome transfection method. 48 hours post-transfection, cells were seeded for limited dilution cloning and selected with 1 mg/ml G418 in the culture medium. After 3 weeks, surviving colonies of hCTR2-expressing cells were picked, propagated and tested in the amylin efficacy assay as described in Example 3 below. One hCTR2-expressing clone was chosen for compound profiling.
In vitro activity of test peptides at the hCTR2 and hAMYR3 receptors was assessed by measuring the induction of cAMP following stimulation of the receptor by pramlintide or peptides of the invention using the AlphaScreen® cAMP Assay kit from Perkin-Elmer.
Briefly, COS7 cells expressing hCTR2 (see Example 2, above) were seeded at 30-40,000 cells per well in 96-well microtiter plates coated with 0.01 % poly-L-lysine, and grown for 1 day in culture in 100 µl growth medium [DMEM, 10% FCS, Penicillin (100 IU/ml), Streptomycin (100 µg/ml)]. On the day of analysis, growth medium was removed and the cells were washed once with 200 µl Tyrode buffer [Tyrode's Salts (9.6 g/l), 10 mM HEPES, pH 7.4]. Cells were incubated in 100 µl Tyrode buffer containing increasing concentrations of test peptides, 100 µM IBMX and 0.1% casein for 15 min at 37° C. The reaction was stopped by carefully decanting off the compound/buffer medium and replacing it with lysis/detection buffer (80 µl 0.1 % w/v BSA, 5 mM HEPES, 0.3 % v/v Tween-20 in deionized water). After incubation at room temperature for 10 min., the cAMP content of the resulting cell lysate was estimated according to the AlphaScreen® cAMP Assay manufacturer's instructions. EC50 values and relative efficacy values (in %) compared to reference peptide (Pramlintide) were estimated by computer-aided curve fitting using the 4-parameter logistic (4PL) non-linear model.
The in vitro activity results (expressed as EC50 values) for peptides of the invention and for Pramlintide (reference peptide) are summarized in Table 2, below.

[1] = cAMP induction in COS7 cells expressing hCTR2, average of a minimum of 3 determinations, read-out: hCTR2 EC50

EC50 [1] [pM] | Compound | EC50 [pM]
– | CC[C@H](C)[C@@H](C(=O)N[C@@H](CC(C)C)C(=O)N[C@@H](CO)C(=O)N[C@@H](CO)C(=O)N[C@H](C(=O)N[C@@H](CC(N)=O)C(=O)N[C@H](C(=O)NCC(=O)N[C@@H](CO)C(=O)N[C@@H](CC(N)=O)C(=O)N[C@H](C(=O)N1CCC[C@H]1C(N)=O)[C@@H](C)O)C(C)C)[C@@H](C)O)N(C)C(=O)[C@H](C)NC(=O)CN(C)C(=O)[C@@H](Cc1ccccc1)NC(=O)[C@H](CC(N)=O)NC(=O)[C@H](CC(N)=O)NC(=O)[C@H](CO)NC(=O)[C@H](CO)NC(=O)[C@H](Cc1c[nH]cn1)NC(=O)[C@H](Cc1c[nH]cn1)NC(=O)[C@H](CC(C)C)NC(=O)[C@H](Cc1ccccc1)NC(=O)[C@H](CCC(=O)O)NC(=O)[C@H](C)NC(=O)[C@H](CC(C)C)NC(=O)[C@H](CCCNC(=N)N)NC(=O)[C@H](CCC(N)=O)NC(=O)[C@@H](NC(=O)[C@H](C)NC(=O)[C@@H]1CSSC[C@H](NC(=O)[C@H](CCCNC(=N)N)NC(=O)CC[C@H](NC(=O)CCCCCCCCCCCCCCCCCCC(=O)O)C(=O)O)C(=O)N[C@@H](CC(N)=O)C(=O)N[C@@H]([C@@H](C)O)C(=O)N[C@@H](C)C(=O)N[C@@H]([C@@H](C)O)C(=O)N1)[C@@H](C)O [Compound 13, [19CD]-isoGlu-RC()NTATC()ATQRLAEFLHHSSNN-DPhe-Gly(Me)-A-Ile(Me)-LSSTNVGSNTP-NH2] ({C20 diacid-γGlu}-RCNTATCATQRLAEFLHHSSNN[dF][Sar]A[NMeI]LSSTNVGSNTP-NH2; disulfide 2-7) | 67
– | CC[C@H](C)[C@@H](C(=O)N[C@@H](CC(C)C)C(=O)N[C@@H](CO)C(=O)N[C@@H](CO)C(=O)N[C@H](C(=O)N[C@@H](CC(N)=O)C(=O)N[C@H](C(=O)NCC(=O)N[C@@H](CO)C(=O)N[C@@H](CC(N)=O)C(=O)N[C@H](C(=O)N1CCC[C@H]1C(N)=O)[C@@H](C)O)C(C)C)[C@@H](C)O)N(C)C(=O)[C@@H](C)NC(=O)CN(C)C(=O)[C@H](Cc1ccccc1)NC(=O)[C@H](CC(N)=O)NC(=O)[C@H](CC(N)=O)NC(=O)[C@H](CO)NC(=O)[C@H](CO)NC(=O)[C@H](Cc1c[nH]cn1)NC(=O)[C@H](Cc1c[nH]cn1)NC(=O)[C@H](CC(C)C)NC(=O)[C@H](Cc1ccccc1)NC(=O)[C@H](CCC(=O)O)NC(=O)[C@H](C)NC(=O)[C@H](CC(C)C)NC(=O)[C@H](CCCNC(=N)N)NC(=O)[C@H](CCC(N)=O)NC(=O)[C@@H](NC(=O)[C@H](C)NC(=O)[C@@H]1CSSC[C@H](NC(=O)[C@H](CCCNC(=N)N)NC(=O)CC[C@H](NC(=O)CCCCCCCCCCCCCCCCCCC(=O)O)C(=O)O)C(=O)N[C@@H](CC(N)=O)C(=O)N[C@@H]([C@@H](C)O)C(=O)N[C@@H](C)C(=O)N[C@@H]([C@@H](C)O)C(=O)N1)[C@@H](C)O [Compound 14, [19CD]-isoGlu-RC()NTATC()ATQRLAEFLHHSSNNF-Gly(Me)-DAla-Ile(Me)-LSSTNVGSNTP-NH2] ({C20 diacid-γGlu}-RCNTATCATQRLAEFLHHSSNNF[Sar][dA][NMeI]LSSTNVGSNTP-NH2; disulfide 2-7) | 210
– | CC[C@H](C)[C@@H](C(=O)N[C@H](CC(C)C)C(=O)N[C@@H](CO)C(=O)N[C@@H](CO)C(=O)N[C@H](C(=O)N[C@@H](CC(N)=O)C(=O)N[C@H](C(=O)NCC(=O)N[C@@H](CO)C(=O)N[C@@H](CC(N)=O)C(=O)N[C@H](C(=O)N1CCC[C@H]1C(N)=O)[C@@H](C)O)C(C)C)[C@@H](C)O)N(C)C(=O)[C@H](C)NC(=O)CN(C)C(=O)[C@H](Cc1ccccc1)NC(=O)[C@H](CC(N)=O)NC(=O)[C@H](CC(N)=O)NC(=O)[C@H](CO)NC(=O)[C@H](CO)NC(=O)[C@H](Cc1c[nH]cn1)NC(=O)[C@H](Cc1c[nH]cn1)NC(=O)[C@H](CC(C)C)NC(=O)[C@H](Cc1ccccc1)NC(=O)[C@H](CCC(=O)O)NC(=O)[C@H](C)NC(=O)[C@H](CC(C)C)NC(=O)[C@H](CCCNC(=N)N)NC(=O)[C@H](CCC(N)=O)NC(=O)[C@@H](NC(=O)[C@H](C)NC(=O)[C@@H]1CSSC[C@H](NC(=O)[C@H](CCCNC(=N)N)NC(=O)CC[C@H](NC(=O)CCCCCCCCCCCCCCCCCCC(=O)O)C(=O)O)C(=O)N[C@@H](CC(N)=O)C(=O)N[C@@H]([C@@H](C)O)C(=O)N[C@@H](C)C(=O)N[C@@H]([C@@H](C)O)C(=O)N1)[C@@H](C)O [Compound 15, [19CD]-isoGlu-RC()NTA TC()ATQRLAEFLHHSSNNF-Gly(Me)-A-Ile(Me)-DLeu-SSTNVGSNTP-NH2] ({C20 diacid-γGlu}-RCNTATCATQRLAEFLHHSSNNF[Sar]A[NMeI][dL]SSTNVGSNTP-NH2; disulfide 2-7) | 160
76 | CC[C@H](C)[C@@H](C(=O)N[C@@H](CC(C)C)C(=O)N[C@@H](CO)C(=O)N[C@@H](CO)C(=O)N[C@H](C(=O)N[C@@H](CC(N)=O)C(=O)N[C@H](C(=O)NCC(=O)N[C@@H](CO)C(=O)N[C@@H](CC(N)=O)C(=O)N[C@H](C(=O)N1CCC[C@H]1C(N)=O)[C@@H](C)O)C(C)C)[C@@H](C)O)N(C)C(=O)[C@H](C)NC(=O)[C@H](C)NC(=O)[C@H](Cc1ccccc1)NC(=O)[C@H](CC(N)=O)NC(=O)[C@H](CC(N)=O)NC(=O)[C@H](CO)NC(=O)[C@H](CO)NC(=O)[C@H](Cc1c[nH]cn1)NC(=O)[C@H](Cc1c[nH]cn1)NC(=O)[C@H](CC(C)C)NC(=O)[C@H](Cc1ccccc1)NC(=O)[C@H](CCC(=O)O)NC(=O)[C@H](C)NC(=O)[C@H](CC(C)C)NC(=O)[C@H](CCCNC(=N)N)NC(=O)[C@H](CCC(N)=O)NC(=O)[C@@H](NC(=O)[C@H](C)NC(=O)[C@@H]1CSSC[C@H](NC(=O)[C@H](CCCNC(=N)N)NC(=O)CC[C@H](NC(=O)CCCCCCCCCCCCCCCCCCC(=O)O)C(=O)O)C(=O)N[C@@H](CC(N)=O)C(=O)N[C@@H]([C@@H](C)O)C(=O)N[C@@H](C)C(=O)N[C@@H]([C@@H](C)O)C(=O)N1)[C@@H](C)O [Compound 16, [19CD]-isoGlu-RC()NTATC()ATQRLAEFLHHSSNNFAA-Ile(Me)-LSSTNVGSNTP-NH2] ({C20 diacid-γGlu}-RCNTATCATQRLAEFLHHSSNNFAA[NMeI]LSSTNVGSNTP-NH2; disulfide 2-7) | –
93 | CC[C@H](C)[C@@H](C(=O)N[C@@H](CC(C)C)C(=O)N[C@@H](CO)C(=O)N[C@@H](CO)C(=O)N[C@H](C(=O)N[C@@H](CC(N)=O)C(=O)N[C@H](C(=O)NCC(=O)N[C@@H](CO)C(=O)N[C@@H](CC(N)=O)C(=O)N[C@H](C(=O)N1CCC[C@H]1C(N)=O)[C@@H](C)O)C(C)C)[C@@H](C)O)N(C)C(=O)[C@H](C)NC(=O)[C@@H](C)NC(=O)[C@H](Cc1ccccc1)NC(=O)[C@H](CC(N)=O)NC(=O)[C@H](CC(N)=O)NC(=O)[C@H](CO)NC(=O)[C@H](CO)NC(=O)[C@H](Cc1c[nH]cn1)NC(=O)[C@H](Cc1c[nH]cn1)NC(=O)[C@H](CC(C)C)NC(=O)[C@H](Cc1ccccc1)NC(=O)[C@H](CCC(=O)O)NC(=O)[C@H](C)NC(=O)[C@H](CC(C)C)NC(=O)[C@H](CCCNC(=N)N)NC(=O)[C@H](CCC(N)=O)NC(=O)[C@@H](NC(=O)[C@H](C)NC(=O)[C@@H]1CSSC[C@H](NC(=O)[C@H](CCCNC(=N)N)NC(=O)CC[C@H](NC(=O)CCCCCCCCCCCCCCCCCCC(=O)O)C(=O)O)C(=O)N[C@@H](CC(N)=O)C(=O)N[C@@H]([C@@H](C)O)C(=O)N[C@@H](C)C(=O)N[C@@H]([C@@H](C)O)C(=O)N1)[C@@H](C)O [Compound 17, [19CD]-isoGlu-RC()NTATC()ATQRLAEFLHHSSNNF-DAla-A-Ile(Me)-LSSTNVGSNTP-NH2] ({C20 diacid-γGlu}-RCNTATCATQRLAEFLHHSSNNF[dA]A[NMeI]LSSTNVGSNTP-NH2; disulfide 2-7) | –
